In ChEMBL document CHEMBL5338753, “Stapled Peptides as Direct Inhibitors of Nrf2-sMAF Transcription Factors” (J Med Chem, 2023):
Active and inactive are the calls of the source. No cut-off for these calls is given here. Positions of bridges follow the written chain, without caps; N, C: chain ends. Non-standard residues stand in square brackets, D forms with d. Residues, ends and D or L forms follow the SMILES beside them. R5 = C=CCCC[C@@](C)(N)C(=O)O

Legend:
[1] = system: A549; assay: Synergistic antiproliferative activity against human A549 cells assessed as cell death at 6.25 uM incubated for 72 hrs in presence of 12 uM cisplatin by MTT assay (reference value: 66%); type: functional
[2] = system: A549; assay: Antiproliferative activity against human A549 cells assessed as cell death at 12.5 uM incubated for 72 hrs by MTT assay relative to control; type: functional
[3] = system: A549; assay: Synergistic antiproliferative activity against human A549 cells assessed as combination index at 6.25 uM incubated for 72 hrs in presence of 12 uM cisplatin by Chou-Talalay method; type: functional
[4] = system: A549; assay: Synergistic antiproliferative activity against human A549 cells assessed as reduction in cell growth at 50 uM incubated for 3 days in presence of 6 uM cisplatin and measured every 2 hrs by IncuCyte live-cell imaging assay; type: functional, cell-based; conditions: time 3.0 day
[5] = system: A549; assay: Synergistic antiproliferative activity against human A549 cells assessed as combination index at 1.563 uM incubated for 72 hrs in presence of 6 uM cisplatin by Chou-Talalay method; type: functional
[6] = system: A549; assay: Antiproliferative activity against human A549 cells assessed as cell death at 25 uM incubated for 72 hrs by MTT assay relative to control; type: functional
[7] = system: A549; assay: Synergistic antiproliferative activity against human A549 cells assessed as cell death at 100 uM incubated for 72 hrs in presence of 6 uM cisplatin by MTT assay (reference value: 46%); type: functional
[8] = system: HEK-293T; assay: Cytotoxicity against HEK-293T cells assessed as reduction in cell viability; type: toxicity, cell-based; conditions: human
[9] = biological target: T1, Nuclear factor erythroid 2-related factor 2 (Homo sapiens) (UniProt Q16236); assay: Inhibition of Nrf2 transcriptional activity in human A549 cells assessed as reduction in glutathione level at 50 to 100 uM incubated for 24 hrs by GSH-Glo glutathione assay; type: cell-based; conditions: dose 50-100 µM
T1 sequence (whole entry): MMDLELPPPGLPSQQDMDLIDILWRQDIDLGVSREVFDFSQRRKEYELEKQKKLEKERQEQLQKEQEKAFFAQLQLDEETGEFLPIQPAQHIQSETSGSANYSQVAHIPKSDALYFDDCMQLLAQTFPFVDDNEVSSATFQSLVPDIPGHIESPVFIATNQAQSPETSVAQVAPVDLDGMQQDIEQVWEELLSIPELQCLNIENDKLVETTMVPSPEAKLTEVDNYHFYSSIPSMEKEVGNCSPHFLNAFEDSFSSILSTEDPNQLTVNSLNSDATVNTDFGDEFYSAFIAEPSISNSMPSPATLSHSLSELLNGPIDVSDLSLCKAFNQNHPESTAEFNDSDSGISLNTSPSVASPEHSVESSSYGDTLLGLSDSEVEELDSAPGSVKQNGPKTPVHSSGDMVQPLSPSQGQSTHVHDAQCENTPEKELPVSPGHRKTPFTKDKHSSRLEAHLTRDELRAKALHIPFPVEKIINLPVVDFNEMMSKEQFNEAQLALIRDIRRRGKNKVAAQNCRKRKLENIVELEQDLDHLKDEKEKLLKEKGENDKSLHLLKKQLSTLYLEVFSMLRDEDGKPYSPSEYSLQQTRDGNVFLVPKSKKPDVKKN

[10] = system: A549; assay: Synergistic antiproliferative activity against human A549 cells assessed as cell death at 50 uM incubated for 72 hrs in presence of 6 uM cisplatin by MTT assay (reference value: 46%); type: functional
[11] = Stability of compound assessed as proteinase K (unknown origin) mediated compound degradation at 55 uM measured upto 24 hrs by LC/MS analysis; type: ADME; conditions: human
[12] = system: A549; assay: Downregulation of NQO2 mRNA level in human A549 cells at 50 uM incubated for 72 hrs by qPCR assay; type: functional, cell-based
[13] = system: A549; assay: Synergistic antiproliferative activity against human A549 cells assessed as combination index at 3.125 uM incubated for 72 hrs in presence of 12 uM cisplatin by Chou-Talalay method; type: functional
[14] = system: A549; assay: Synergistic antiproliferative activity against human A549 cells assessed as cell death at 100 uM incubated for 72 hrs in presence of 12 uM cisplatin by MTT assay (reference value: 66%); type: functional
[15] = system: A549; assay: Synergistic antiproliferative activity against human A549 cells assessed as cell death at 1.563 uM incubated for 72 hrs in presence of 6 uM cisplatin by MTT assay (reference value: 46%); type: functional
[16] = system: A549; assay: Synergistic antiproliferative activity against human A549 cells assessed as combination index at 3.125 uM incubated for 72 hrs in presence of 6 uM cisplatin by Chou-Talalay method; type: functional
[17] = system: A549; assay: Synergistic antiproliferative activity against human A549 cells assessed as cell death at 3.125 uM incubated for 72 hrs in presence of 12 uM cisplatin by MTT assay (reference value: 66%); type: functional
[18] = system: A549; assay: Synergistic antiproliferative activity against human A549 cells assessed as cell death at 25 uM incubated for 72 hrs in presence of 6 uM cisplatin by MTT assay (reference value: 46%); type: functional
[19] = system: A549; assay: Synergistic antiproliferative activity against human A549 cells assessed as cell death at 1.563 uM incubated for 72 hrs in presence of 12 uM cisplatin by MTT assay (reference value: 66%); type: functional
[20] = system: A549; assay: Synergistic antiproliferative activity against human A549 cells assessed as cell death at 6.25 uM incubated for 72 hrs in presence of 6 uM cisplatin by MTT assay (reference value: 46%); type: functional
[21] = system: A549; assay: Synergistic antiproliferative activity against human A549 cells assessed as combination index at 1.563 uM incubated for 72 hrs in presence of 12 uM cisplatin by Chou-Talalay method; type: functional
[22] = biological target: T1, Nuclear factor erythroid 2-related factor 2 (Homo sapiens); assay: Inhibition of human Nrf2 in HEK-293T cells expressing ARE-firefly luciferase and TK-Renilla luciferase at 50 to 100 uM incubated for 16 hrs by Dual-Luciferase reporter based luminometer analysis; type: cell-based; conditions: dose 50-100 µM
[23] = system: A549; assay: Downregulation of ABCC1 mRNA level in human A549 cells at 50 uM incubated for 72 hrs by qPCR assay; type: functional, cell-based
[24] = system: A549; assay: Synergistic antiproliferative activity against human A549 cells assessed as combination index at 12.5 uM incubated for 72 hrs in presence of 6 uM cisplatin by Chou-Talalay method; type: functional
[25] = system: A549; assay: Synergistic antiproliferative activity against human A549 cells assessed as combination index at 25 uM incubated for 72 hrs in presence of 6 uM cisplatin by Chou-Talalay method; type: functional
[26] = system: A549; assay: Antiproliferative activity against human A549 cells assessed as cell death at 100 uM incubated for 72 hrs by MTT assay relative to control; type: functional
[27] = system: A549; assay: Synergistic antiproliferative activity against human A549 cells assessed as combination index at 6.25 uM incubated for 72 hrs in presence of 6 uM cisplatin by Chou-Talalay method; type: functional
[28] = system: A549; assay: Downregulation of TrxR1 protein expression in human A549 cells at 25 to 50 uM incubated for 72 hrs by Western blot analysis; type: functional, cell-based; conditions: dose 25-50 µM
[29] = biological target: NRF2-MAFG (Homo sapiens) (UniProt Q16236+O15525); assay: Inhibition of human Nrf2/MafG heterodimerization expressed in Escherichia coli Rosetta (DE3) by Split-luciferase assay; conditions: dose 1.56-100 µM
[30] = system: A549; assay: Downregulation of HMOX1 mRNA level in human A549 cells at 50 uM incubated for 72 hrs by qPCR assay; type: functional, cell-based

In the case of CC[C@H](C)[C@H](NC(C)=O)C(=O)N[C@H](C(=O)N[C@@H](CCC(=O)O)C(=O)N[C@@H](CC(C)C)C(=O)N[C@@H](CCC(=O)O)C(=O)N[C@]1(C)CCC/C=C\CCC[C@](C)(C(=O)N[C@@H](CC(C)C)C(=O)N[C@@H](CCCCN)C(=O)N[C@@H](CC(=O)O)C(=O)N[C@@H](CCC(=O)O)C(=O)N[C@@H](CCCCN)C(=O)N[C@@H](CCC(=O)O)C(N)=O)NC(=O)[C@H](CC(=O)O)NC(=O)[C@H](CC(C)C)NC(=O)[C@H](CC(=O)O)NC1=O)C(C)C (Ac-IVELE[R5]DLD[R5]LKDEKE-NH2; staple (Z) 6-10), the Activity [1] is reported as 79%, the Activity [2] is reported as 24% and the CI [3] is reported as 0.57. The Activity [4] was “Active”, the CI [5] was 0.89 and the Activity [6] was 30%. For the same molecule, the Activity [7] was 76%, the Activity [8] was “Non-Toxic” and the inhibition [9] was “Active”. The Activity [10] was 74%, the Stability [11] was “Unstable” and the Activity [12] was “Active”. It also gave a CI [13] of 0.82, an Activity [14] of 100% and an Activity [15] of 50%. It also gave a CI [16] of 0.84, an Activity [17] of 71% and an Activity [18] of 68%. For the same molecule, the Activity [19] was 67%, the Activity [20] was 59% and the CI [21] was 0.96. For the same molecule, the inhibition [22] was “Active”, the Activity [23] was “Active” and the CI [24] was 0.57. It also gave a CI [25] of 0.51, an Activity [26] of 37% and a CI [27] of 0.67. For the same molecule, the Activity [28] was “Active”, the inhibition [29] was “Dose-Dependent Effect” and the Activity [30] was “Active”.
